Results from ChEMBL document CHEMBL1743201, “Casarett and Doull's Toxicology The Basic Science of Poisons, 7th edition” (2008).

How the values were obtained:
[1] = target: T1, Cytochrome P450 2A6 (Homo sapiens, UniProt P11509); assay: Clinically relevant inhibitors of human liver microsomal P450 enzymes, isoform CYP2A6; type: ADME; conditions: microsomes
T1 sequence (P11509 whole entry): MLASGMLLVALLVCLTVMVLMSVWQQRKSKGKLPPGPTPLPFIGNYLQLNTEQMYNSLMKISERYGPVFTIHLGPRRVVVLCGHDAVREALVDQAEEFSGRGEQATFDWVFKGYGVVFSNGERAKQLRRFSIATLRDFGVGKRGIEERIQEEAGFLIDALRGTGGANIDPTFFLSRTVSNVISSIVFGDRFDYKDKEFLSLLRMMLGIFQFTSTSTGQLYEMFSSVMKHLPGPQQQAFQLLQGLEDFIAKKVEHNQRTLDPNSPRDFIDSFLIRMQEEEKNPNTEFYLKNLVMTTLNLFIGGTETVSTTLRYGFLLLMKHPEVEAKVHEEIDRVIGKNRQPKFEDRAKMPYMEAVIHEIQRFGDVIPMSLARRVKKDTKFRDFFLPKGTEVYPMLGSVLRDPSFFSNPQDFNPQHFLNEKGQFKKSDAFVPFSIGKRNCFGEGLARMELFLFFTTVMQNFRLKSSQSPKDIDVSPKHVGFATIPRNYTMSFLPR

[2] = target: T2, Maleylacetoacetate isomerase (Homo sapiens, UniProt O43708); assay: Substrates for human cytosolic glutathione transferase GSTZ1; type: ADME
T2 sequence (O43708 whole entry): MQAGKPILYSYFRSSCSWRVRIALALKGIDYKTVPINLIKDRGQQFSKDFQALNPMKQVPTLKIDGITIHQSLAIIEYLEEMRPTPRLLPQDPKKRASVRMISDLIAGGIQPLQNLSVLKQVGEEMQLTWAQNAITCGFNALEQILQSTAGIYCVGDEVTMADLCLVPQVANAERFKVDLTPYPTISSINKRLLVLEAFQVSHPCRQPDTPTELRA

[3] = target: T3, Nuclear receptor subfamily 1 group I member 3 (Mus musculus, UniProt O35627); assay: Constitutive androstane receptor agonist
T3 sequence (O35627 whole entry): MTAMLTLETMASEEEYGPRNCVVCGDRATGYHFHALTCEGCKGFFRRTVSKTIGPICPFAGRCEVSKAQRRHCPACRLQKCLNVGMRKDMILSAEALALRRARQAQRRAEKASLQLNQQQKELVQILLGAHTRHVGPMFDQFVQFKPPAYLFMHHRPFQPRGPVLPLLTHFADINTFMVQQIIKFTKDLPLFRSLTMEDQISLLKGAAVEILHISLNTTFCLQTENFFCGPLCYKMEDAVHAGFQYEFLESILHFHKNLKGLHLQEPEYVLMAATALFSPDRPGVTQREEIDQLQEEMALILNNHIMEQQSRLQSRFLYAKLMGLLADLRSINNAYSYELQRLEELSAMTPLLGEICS

[4] = target: T4, Cytochrome P450 2C8 (Homo sapiens, UniProt P10632); assay: Clinically relevant substrates of human liver microsomal P450 enzymes, isoform CYP2C8; type: ADME; conditions: microsomes
T4 sequence (P10632 whole entry): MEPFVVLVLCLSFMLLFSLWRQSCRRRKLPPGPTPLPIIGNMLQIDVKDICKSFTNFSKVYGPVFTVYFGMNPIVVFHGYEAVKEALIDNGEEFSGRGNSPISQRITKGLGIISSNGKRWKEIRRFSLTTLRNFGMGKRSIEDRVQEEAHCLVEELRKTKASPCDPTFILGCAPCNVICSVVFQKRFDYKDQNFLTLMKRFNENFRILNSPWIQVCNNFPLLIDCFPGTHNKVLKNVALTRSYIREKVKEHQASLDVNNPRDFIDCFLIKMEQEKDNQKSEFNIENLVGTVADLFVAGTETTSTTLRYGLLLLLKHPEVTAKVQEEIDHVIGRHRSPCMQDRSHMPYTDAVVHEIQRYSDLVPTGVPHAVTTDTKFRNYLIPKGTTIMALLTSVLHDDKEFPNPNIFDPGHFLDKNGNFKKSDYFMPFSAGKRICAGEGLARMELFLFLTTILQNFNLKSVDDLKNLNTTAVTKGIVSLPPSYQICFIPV

[5] = target: T4, Cytochrome P450 2C8; assay: Clinically relevant inhibitors of human liver microsomal P450 enzymes, isoform CYP2C8; type: ADME; conditions: microsomes
[6] = target: T5, Glutathione S-transferase kappa 1 (Homo sapiens, UniProt Q9Y2Q3); assay: Substrates for human mitochondrial glutathione transferase GSTK1; type: ADME
T5 sequence (Q9Y2Q3 whole entry): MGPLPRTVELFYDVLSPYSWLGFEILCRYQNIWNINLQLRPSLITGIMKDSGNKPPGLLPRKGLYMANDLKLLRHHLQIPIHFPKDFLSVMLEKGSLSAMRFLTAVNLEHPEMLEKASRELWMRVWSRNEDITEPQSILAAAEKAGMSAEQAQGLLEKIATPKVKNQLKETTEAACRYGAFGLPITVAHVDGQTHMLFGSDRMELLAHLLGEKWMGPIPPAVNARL

[7] = target: Cytochrome P450 2E1 (Homo sapiens, UniProt P05181); assay: Clinically relevant substrates of human liver microsomal P450 enzymes, isoform CYP2E1; type: ADME; conditions: microsomes
Chain of Cytochrome P450 2E1 (P05181 whole entry, canonical isoform): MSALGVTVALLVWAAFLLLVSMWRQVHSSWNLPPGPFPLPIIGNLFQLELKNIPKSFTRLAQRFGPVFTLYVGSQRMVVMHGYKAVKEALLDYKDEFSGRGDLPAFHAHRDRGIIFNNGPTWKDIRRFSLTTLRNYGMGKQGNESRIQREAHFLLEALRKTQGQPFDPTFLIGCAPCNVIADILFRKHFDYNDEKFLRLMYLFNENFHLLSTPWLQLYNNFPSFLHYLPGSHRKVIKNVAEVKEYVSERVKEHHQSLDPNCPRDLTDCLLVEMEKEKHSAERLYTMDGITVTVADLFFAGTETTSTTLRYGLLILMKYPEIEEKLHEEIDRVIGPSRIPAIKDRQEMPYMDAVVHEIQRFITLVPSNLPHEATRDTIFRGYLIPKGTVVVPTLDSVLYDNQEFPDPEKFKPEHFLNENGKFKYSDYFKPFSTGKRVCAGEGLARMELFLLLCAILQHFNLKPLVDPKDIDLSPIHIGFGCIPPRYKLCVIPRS

[8] = target: T6, UDP-glucuronosyltransferase 2B17 (Homo sapiens, UniProt O75795); assay: Substrate of human UDP-glucuronosyltransferase UGT2B17; type: ADME
T6 sequence (O75795 whole entry): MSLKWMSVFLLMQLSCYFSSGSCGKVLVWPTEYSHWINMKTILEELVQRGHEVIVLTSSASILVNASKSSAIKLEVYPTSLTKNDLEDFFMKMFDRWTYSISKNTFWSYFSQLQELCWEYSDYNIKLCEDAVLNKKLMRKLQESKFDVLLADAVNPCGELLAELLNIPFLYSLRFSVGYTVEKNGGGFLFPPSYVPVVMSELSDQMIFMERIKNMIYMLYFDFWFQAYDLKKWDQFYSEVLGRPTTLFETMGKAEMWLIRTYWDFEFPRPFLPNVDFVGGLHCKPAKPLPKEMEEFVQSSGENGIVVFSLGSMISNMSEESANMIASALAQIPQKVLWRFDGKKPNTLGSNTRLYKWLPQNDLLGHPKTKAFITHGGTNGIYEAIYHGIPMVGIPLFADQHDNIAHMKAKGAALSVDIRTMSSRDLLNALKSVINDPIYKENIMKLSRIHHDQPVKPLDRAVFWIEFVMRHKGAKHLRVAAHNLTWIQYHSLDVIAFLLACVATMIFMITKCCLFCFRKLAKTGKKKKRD

[9] = target: T7, Glutathione S-transferase A2 (Homo sapiens, UniProt P09210); assay: Substrates for human cytosolic glutathione transferase GSTA2; type: ADME
T7 sequence (P09210 whole entry): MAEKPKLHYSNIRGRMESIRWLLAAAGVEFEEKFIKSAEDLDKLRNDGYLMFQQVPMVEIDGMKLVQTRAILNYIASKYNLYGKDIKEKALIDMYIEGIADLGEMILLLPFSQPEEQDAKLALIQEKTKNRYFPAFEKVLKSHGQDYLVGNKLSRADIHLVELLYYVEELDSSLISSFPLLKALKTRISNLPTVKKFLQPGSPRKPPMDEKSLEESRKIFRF

[10] = target: T8, UDP-glucuronosyltransferase 1A9 (Homo sapiens, UniProt O60656); assay: Substrate of human UDP-glucuronosyltransferase UGT1A9; type: ADME
T8 sequence (O60656 whole entry): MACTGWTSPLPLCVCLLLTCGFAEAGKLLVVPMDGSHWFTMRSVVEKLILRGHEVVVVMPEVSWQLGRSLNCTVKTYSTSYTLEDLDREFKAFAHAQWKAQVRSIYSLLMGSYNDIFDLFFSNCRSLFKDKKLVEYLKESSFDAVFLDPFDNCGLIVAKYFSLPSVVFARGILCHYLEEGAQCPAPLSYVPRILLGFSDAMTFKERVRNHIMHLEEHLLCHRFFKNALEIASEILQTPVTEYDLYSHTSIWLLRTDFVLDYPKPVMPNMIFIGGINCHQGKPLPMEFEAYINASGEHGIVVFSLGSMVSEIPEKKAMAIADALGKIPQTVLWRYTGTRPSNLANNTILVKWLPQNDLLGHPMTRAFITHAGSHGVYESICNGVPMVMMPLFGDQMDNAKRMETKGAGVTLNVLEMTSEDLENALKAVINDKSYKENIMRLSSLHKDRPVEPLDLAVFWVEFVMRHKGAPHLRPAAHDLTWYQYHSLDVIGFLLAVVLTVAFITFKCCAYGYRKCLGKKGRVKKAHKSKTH

[11] = target: T9, Glutathione S-transferase Mu 2 (Homo sapiens, UniProt P28161); assay: Substrates for human cytosolic glutathione transferase GSTM2; type: ADME
T9 sequence (P28161 whole entry): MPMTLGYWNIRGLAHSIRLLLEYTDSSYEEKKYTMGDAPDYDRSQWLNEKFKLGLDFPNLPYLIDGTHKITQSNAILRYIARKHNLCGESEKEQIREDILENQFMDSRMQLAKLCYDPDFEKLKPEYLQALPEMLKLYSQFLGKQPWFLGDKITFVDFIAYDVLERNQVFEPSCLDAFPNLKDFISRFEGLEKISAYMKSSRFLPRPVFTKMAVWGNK

[12] = target: T10, Glutathione S-transferase A4 (Homo sapiens, UniProt O15217); assay: Substrates for human cytosolic glutathione transferase GSTA4; type: ADME
T10 sequence (O15217 whole entry): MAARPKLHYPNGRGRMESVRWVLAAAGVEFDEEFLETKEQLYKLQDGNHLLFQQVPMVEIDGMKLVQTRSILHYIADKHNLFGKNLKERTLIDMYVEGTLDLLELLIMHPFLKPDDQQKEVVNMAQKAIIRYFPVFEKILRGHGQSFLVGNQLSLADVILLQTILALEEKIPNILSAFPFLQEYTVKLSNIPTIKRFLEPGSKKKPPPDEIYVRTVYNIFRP

[13] = target: Glutathione S-transferase P (Homo sapiens, UniProt P09211); assay: Substrates for human cytosolic glutathione transferase GSTP1; type: ADME
Chain of Glutathione S-transferase P (P09211 whole entry): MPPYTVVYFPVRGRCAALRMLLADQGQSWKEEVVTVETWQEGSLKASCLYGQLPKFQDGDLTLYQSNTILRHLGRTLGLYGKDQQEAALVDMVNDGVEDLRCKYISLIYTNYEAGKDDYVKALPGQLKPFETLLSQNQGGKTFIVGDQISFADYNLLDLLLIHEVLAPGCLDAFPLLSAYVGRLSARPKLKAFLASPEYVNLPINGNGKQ

[14] = target: Microsomal glutathione S-transferase 2 (Homo sapiens, UniProt Q99735); assay: Substrates for human microsomal glutathione transferase MGST2; type: ADME
Chain of Microsomal glutathione S-transferase 2 (Q99735 whole entry): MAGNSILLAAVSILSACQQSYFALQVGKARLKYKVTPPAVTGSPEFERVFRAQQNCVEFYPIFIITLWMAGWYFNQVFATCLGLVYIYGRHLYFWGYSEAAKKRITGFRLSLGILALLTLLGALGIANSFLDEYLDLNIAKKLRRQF

[15] = target: T11, Microsomal glutathione S-transferase 1 (Homo sapiens, UniProt P10620); assay: Substrates for human microsomal glutathione transferase MGST1; type: ADME
T11 sequence (P10620 whole entry): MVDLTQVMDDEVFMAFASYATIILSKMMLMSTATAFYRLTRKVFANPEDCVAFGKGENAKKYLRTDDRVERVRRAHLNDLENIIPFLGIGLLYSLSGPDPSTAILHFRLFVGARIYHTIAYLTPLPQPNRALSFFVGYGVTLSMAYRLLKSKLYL

Compound: N[C@@H]1C[C@H]1c1ccccc1.N[C@H]1C[C@@H]1c1ccccc1 [TRANYLCYPROMINE]
- Activity [1]: Inhibitor

Compound: O=C(O)CF [FLUOROACETATE]
- Activity [2]: Substrate

Compound: CC[C@@H]1C(=O)OC[C@@H]1Cc1cncn1C [PILOCARPINE]
- Activity [1]: Inhibitor

Compound: Clc1ccccc1C(c1ccccc1)(c1ccccc1)n1ccnc1 [CLOTRIMAZOLE]
- Activity [3]: agonist

Compound: CC(=O)O[C@H]1C(=O)[C@@]2(C)[C@H]([C@H](OC(=O)c3ccccc3)[C@]3(O)C[C@H](OC(=O)[C@H](O)[C@@H](NC(=O)c4ccccc4)c4ccccc4)C(C)=C1C3(C)C)[C@]1(OC(C)=O)CO[C@@H]1C[C@@H]2O [PACLITAXEL]
- Activity [4]: Substrate

Compound: CN(CCOc1ccc(CC2SC(=O)NC2=O)cc1)c1ccccn1 (configuration not stated) [ROSIGLITAZONE]
- Activity [4]: Substrate
- Activity [5]: Inhibitor

Compound: CC(Cl)C(=O)O (configuration not stated)
- Activity [2]: Substrate

Compound: O=C(O)/C=C\C(=O)CC(=O)CC(=O)O [MALEYLACETOACETATE]
- Activity [2]: Substrate

Compound: CCCCC/C=C\C/C=C\C/C=C\C=C\CCCCC(=O)O
- Activity [6]: Substrate

Compound: Nc1ccccc1 [ANILINE]
- Activity [7]: Substrate

Compound: C=CCc1ccc(O)c(OC)c1 [EUGENOL]
- Activity [8]: Substrate

Compound: O=c1c(O)c(-c2ccccc2)oc2cc(O)cc(O)c12 [GALANGIN]
- Activity [8]: Substrate

Compound: O=[N+]([O-])c1ccc(Cl)c2nonc12
- Activity [9]: Substrate

Compound: NCCc1c[nH]c2ccccc12 [TRYPTAMINE]
- Activity [1]: Inhibitor

Compound: CCCCC[C@@H](/C=C/C=C\C/C=C\C/C=C\CCCC(=O)O)OO
- Activity [6]: Substrate

Compound: O=C(O)C(Cl)Cl [DICHLOROACETIC ACID]
- Activity [2]: Substrate

Compound: COc1cc2ccc(=O)oc2cc1O [SCOPOLETIN]
- Activity [10]: Substrate
- Activity [8]: Substrate

Compound: C/C=C/C(=O)OCC1=CCCCC1=O
- Activity [11]: Substrate
- Activity [12]: Substrate
- Activity [13]: Substrate

Compound: CCCCC/C=C\C/C=C\C/C=C\C=C\[C@H](CCCC(=O)O)OO
- Activity [14]: Substrate

Compound: COCc1c(C(C)C)nc(C(C)C)c(/C=C/[C@@H](O)C[C@@H](O)CC(=O)O)c1-c1ccc(F)cc1 [CERIVASTATIN]
- Activity [4]: Substrate

Compound: ClC(Cl)=C(Cl)C(Cl)=C(Cl)Cl [HEXACHLOROBUTADIENE]
- Activity [15]: Substrate

Compound: CCOc1cc(CC(=O)N[C@@H](CC(C)C)c2ccccc2N2CCCCC2)ccc1C(=O)O [REPAGLINIDE]
- Activity [4]: Substrate

Compound: CCCCCCCCCCCC(=O)O [DODECANOATE]
- Activity [7]: Substrate
